For 16 compounds, IC50 results are on record in BindingDB's records for doi:10.1021/cb100387r (Riken Advanced Science Institute, 2011).

In this assay the target is Protein disulfide-isomerase (Homo sapiens, UniProt P07237). In words: Reductase Activity Assay. As to conditions: pH 7. How it is done: Reductase activity was assayed by measuring the PDI-catalyzed reduction of insulin in the presence of DTT, thus measuring the aggregation of reduced insulin chains at 650nm.

A value given as a limit tells only on which side of the number the result lay.

Chain of Protein disulfide-isomerase (P07237 whole entry): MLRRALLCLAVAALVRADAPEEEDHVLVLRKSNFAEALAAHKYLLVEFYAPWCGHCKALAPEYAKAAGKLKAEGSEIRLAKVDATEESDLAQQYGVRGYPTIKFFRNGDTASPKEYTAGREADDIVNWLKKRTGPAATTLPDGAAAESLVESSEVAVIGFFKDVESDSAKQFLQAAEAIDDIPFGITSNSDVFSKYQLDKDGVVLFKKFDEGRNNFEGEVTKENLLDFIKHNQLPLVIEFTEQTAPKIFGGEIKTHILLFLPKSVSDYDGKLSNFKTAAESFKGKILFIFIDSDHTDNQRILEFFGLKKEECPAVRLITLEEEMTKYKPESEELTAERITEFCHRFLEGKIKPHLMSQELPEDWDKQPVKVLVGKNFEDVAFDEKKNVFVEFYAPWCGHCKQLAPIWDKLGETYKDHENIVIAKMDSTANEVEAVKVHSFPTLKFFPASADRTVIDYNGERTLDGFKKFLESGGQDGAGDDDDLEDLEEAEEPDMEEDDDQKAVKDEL

A word on the IC50: it is the concentration that inhibits the measured activity by half. A lower IC50 goes with greater potency. For the compound `COc1ccc(C(=O)OC2C/C=C(\C)CCCC(C)(C)[C@H](O)/C=C/2C)cc1` (stereo partly specified) [Juniferdin derivative, 2], the IC50 is > 10000 nM.

As to `C/C1=C\CC(O)/C(C)=C/[C@@H](O)C(C)(C)CCC1` (stereo partly specified) [Juniferol, 12], the IC50 was > 10000 nM.

Consider `CC(=O)O[C@@H]1/C=C(\C)C(OC(=O)c2ccc(O)cc2)C/C=C(\C)CCCC1(C)C` (stereo partly specified) [Juniferdin derivative, 3], for which the IC50 is 453 nM.

As to `C/C1=C\[C@@H](O)C(C)(C)CCC[C@](C)(O)[C@@H](O)CC1OC(=O)c1ccc(O)cc1` (stereo partly specified) [Juniferdin derivative, 17], half-maximal inhibition (IC50) was put at 1850 nM.

`CCCCCCCCOC(=O)c1ccc(O)cc1` [Juniferdin derivative, 8]: the IC50 was > 10000 nM.

The compound `O=C(OC1CCCCCCC1)c1ccc(O)cc1` [Juniferdin derivative, 9] came in with an IC50 of 2850 nM.

In the case of `CC1(C)CCC[C@@]2(C)O[C@@H]2CC(OC(=O)c2ccc(O)cc2)[C@@]2(C)O[C@@H]2[C@H]1O` (stereo partly specified) [Juniferdin derivative, 15], the IC50 is > 10000 nM.

In turn, `CC(=O)Oc1ccc(C(=O)OC2C/C=C(\C)CCCC(C)(C)[C@H](O)/C=C/2C)cc1` (stereo partly specified) [Juniferdin derivative, 4] returned an IC50 of 627 nM.

`C/C1=C\CC(OC(=O)c2ccc(F)cc2)/C(C)=C/[C@@H](O)C(C)(C)CCC1` (stereo partly specified) [Juniferdin derivative, 7] returned an IC50 of 958 nM.

On to `C/C1=C\[C@@H](O)C(C)(C)CCC[C@@](C)(O)[C@H](O)CC1OC(=O)c1ccc(O)cc1` (stereo partly specified) [Juniferdin derivative, 16], for which the IC50 is > 10000 nM.

In turn, `O=C(OC1CCCCCCCCCCC1)c1ccc(O)cc1` [Juniferdin derivative, 10] showed an IC50 of 565 nM.

For `C/C1=C\CC(OC(=O)c2ccccc2)/C(C)=C/[C@@H](O)C(C)(C)CCC1` (stereo partly specified) [Juniferdin derivative, 6], it took 4960 nM to reach half-maximal inhibition (IC50).

With `C/C1=C\CC(OC(=O)c2ccc(O)cc2)[C@@]2(C)O[C@@H]2[C@@H](O)C(C)(C)CCC1` (stereo partly specified) [Juniferdin derivative, 14], the IC50 stood at 2530 nM.

With `CC(=O)Oc1ccc(C(=O)OC2C/C=C(\C)CCCC(C)(C)[C@H](OC(C)=O)/C=C/2C)cc1` (stereo partly specified) [Juniferdin derivative, 5], the IC50 worked out at 693 nM.

On to `C/C1=C\[C@@H](O)C(C)(C)CCC[C@@]2(C)O[C@@H]2CC1OC(=O)c1ccc(O)cc1` (stereo partly specified) [Juniferdin derivative, 13], for which it took 167 nM to reach half-maximal inhibition (IC50).

Compound `C/C1=C\CC(OC(=O)c2ccc(O)cc2)/C(C)=C/[C@@H](O)C(C)(C)CCC1` (stereo partly specified) [Juniferdin derivative, 1] gave an IC50 of 156 nM.
